The text below walks through data of US20240245786A1, “SMALL MOLECULE DEGRADERS OF PHOSPHATIDYLINOSITOL-5-PHOSPHATE 4-KINASE TYPE 2 AND USES THEREOF” (DANA-FARBER CANCER INSTITUTE, INC., priority 2020, published 2024).

Assay [1] has as its target T1, PIP4K2A (Homo sapiens, UniProt P48426).
T1 sequence (P48426 1-406): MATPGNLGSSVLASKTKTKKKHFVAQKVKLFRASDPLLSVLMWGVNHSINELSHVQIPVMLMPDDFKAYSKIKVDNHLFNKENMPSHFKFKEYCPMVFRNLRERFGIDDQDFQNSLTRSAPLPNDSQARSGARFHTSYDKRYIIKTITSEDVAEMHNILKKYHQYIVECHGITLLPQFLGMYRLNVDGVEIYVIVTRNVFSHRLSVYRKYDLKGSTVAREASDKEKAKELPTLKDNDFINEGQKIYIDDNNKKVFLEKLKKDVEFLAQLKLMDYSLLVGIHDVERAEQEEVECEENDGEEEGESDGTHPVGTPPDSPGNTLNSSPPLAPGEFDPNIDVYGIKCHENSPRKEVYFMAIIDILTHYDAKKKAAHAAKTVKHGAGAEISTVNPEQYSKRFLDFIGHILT
In words: IC50 for bifunctional compound 1, PIP4K2A (biochemical binding affinity).

In assay [2] the target is T2, PIP4K2B (Homo sapiens, UniProt P78356).
T2 sequence (P78356 1-416): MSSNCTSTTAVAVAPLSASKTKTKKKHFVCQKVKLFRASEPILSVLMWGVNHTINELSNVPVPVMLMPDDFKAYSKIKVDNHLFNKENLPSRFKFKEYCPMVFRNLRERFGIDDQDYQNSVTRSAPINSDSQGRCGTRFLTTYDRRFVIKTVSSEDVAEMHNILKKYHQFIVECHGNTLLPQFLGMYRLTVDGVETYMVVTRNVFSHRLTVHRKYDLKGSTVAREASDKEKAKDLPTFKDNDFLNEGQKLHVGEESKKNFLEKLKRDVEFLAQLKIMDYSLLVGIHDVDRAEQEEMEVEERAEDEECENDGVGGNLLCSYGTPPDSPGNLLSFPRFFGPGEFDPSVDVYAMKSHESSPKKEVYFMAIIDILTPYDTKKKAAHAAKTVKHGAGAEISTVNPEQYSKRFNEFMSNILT
In words: IC50 for bifunctional compound 1, PIP4K2B (biochemical binding affinity).

Assay [3] concerns the target T3, ETS2 Repressor Factor (ERF) (Homo sapiens, UniProt P50548).
T3 sequence (P50548 1-548): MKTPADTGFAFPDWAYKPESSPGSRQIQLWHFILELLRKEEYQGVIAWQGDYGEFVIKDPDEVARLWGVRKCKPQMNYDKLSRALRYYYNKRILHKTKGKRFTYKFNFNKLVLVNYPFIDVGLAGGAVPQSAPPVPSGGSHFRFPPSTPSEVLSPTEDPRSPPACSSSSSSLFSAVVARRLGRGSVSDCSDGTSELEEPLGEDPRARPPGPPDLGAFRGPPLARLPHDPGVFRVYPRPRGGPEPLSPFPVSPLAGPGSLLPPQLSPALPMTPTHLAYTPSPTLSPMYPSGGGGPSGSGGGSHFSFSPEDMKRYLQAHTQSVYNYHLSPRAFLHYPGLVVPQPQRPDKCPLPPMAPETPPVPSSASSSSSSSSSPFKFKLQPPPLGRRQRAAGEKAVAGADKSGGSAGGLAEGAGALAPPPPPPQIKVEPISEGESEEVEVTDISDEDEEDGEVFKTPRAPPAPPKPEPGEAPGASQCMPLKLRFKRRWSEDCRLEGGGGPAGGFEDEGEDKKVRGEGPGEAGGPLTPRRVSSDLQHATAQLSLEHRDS
The assay can be described thus: Proteomics analysis (TMT LC-MS3) of Molt4 cells, ERF. The settings on record: 1 μM, 5 h.
Description: (§1) Molt4 cells were treated with DMSO or the indicated compound for 5 h, and cells were harvested by centrifugation. […] The homogenized sample was clarified by centrifugation at 20,000×g for 10 min at 4° C. A micro-BCA assay (Pierce™) was used to determine the final protein concentration in the cell lysate. […] Proteins were precipitated using methanol/chloroform. In brief, four volumes of methanol were added to the cell lysate, followed by one volume of chloroform, and finally three volumes of water. The mixture was vortexed and centrifuged at 14,000×g for 5 min to separate the chloroform phase from the aqueous phase. […] The sample channels were combined in a 1:1:1:1:1:1:1:1:1:1 ratio, desalted using C18 solid phase extraction cartridges (Waters®) and analyzed by liquid chromatography-mass spectrometry (LC-MS) for channel ratio comparison. Samples were then combined using the adjusted volumes determined in the channel ratio analysis and dried down in a speed vacuum. […]
(§2) Proteome Discoverer™ 2.2 (Thermo Fisher) was used for RAW file processing and controlling peptide and protein level false discovery rates, assembling proteins from peptides, and protein quantification from peptides. […] TMT reporter ion intensities were measured using a 0.003 Da window around the theoretical m z for each reporter ion in the MS3 scan. […]

The target of assay [4] is T1, PIP4K2A. The assay can be described thus: Proteomics analysis (TMT LC-MS3) of Molt4 cells, PIP4K2A abundance. The settings on record: 1 μM, 5 h.
Description: as §1, §2
The target in assay [5] is T2, PIP4K2B. The assay can be described thus: Proteomics analysis (TMT LC-MS3) of Molt4 cells, PIP4K2B abundance. The settings on record: 1 μM, 5 h.
Description: as §1, §2
The target in assay [6] is T3, ETS2 Repressor Factor (ERF). The assay can be described thus: Immunoblot of ERF degradation in Molt4 cells (FIG. 1D). The format is cell-based. Details: immunoblot of PIP4K2A, PIP4K2B, PIP4K2C, and ERF degradation in Molt4 cells; endogenous in cells; host or cells: Molt4. The settings on record: 6 h or 8 h. On the procedure:
Molt4 cells were treated with the indicated compounds for the indicated time in FIG. 1A-FIG. 1F and FIG. 3A-FIG. 3B. Cells were lysed in M-PER™ buffer (Thermo Scientific) containing protease/phosphatase inhibitor cocktail (Roche®). Protein concentration was measured using a bicinchoninic acid (BCA) assay (Pierce™). Equivalent amounts of each sample were loaded on 4-12% Bis-Tris gels (Invitrogen™), transferred to nitrocellulose membranes, and immunoblotted with antibodies against the indicated proteins. IRDye®800-labeled goat anti-rabbit IgG and IRDye®680-labeled goat anti-mouse IgG (LI-COR®) secondary antibodies were purchased for LI-COR®, and membranes were detected on an Odyssey® detection system (LI-COR® Biosciences).

In general, IC50 refers to the point on the concentration scale where inhibition reaches its midpoint. Read a high IC50 as lower potency. In the case of `Cc1ncsc1-c1ccc([C@H](C)NC(=O)C2C[C@@H](O)CN2C(=O)[C@@H](NC(=O)CCCCC(=O)Nc2ccc(C(=O)Nc3cccc(Nc4cc(-c5c[nH]c6ccccc56)ncn4)c3)cc2)C(C)(C)C)cc1` (stereo partly drawn) [Compound 1, N1-(4-((3-((6-(1H-indol-3-yl)pyrimidin-4-yl)amino)phenyl)carbamoyl)phenyl)-N6-((2S)-1-((4R)-4-hydroxy-2-(((S)-1-(4-(4-methylthiazol-5-yl)phenyl)ethyl)carbamoyl)pyrrolidin-1-yl)-3,3-dimethyl-1-oxobutan-2-yl)adipamide], the IC50 in assay [1] was above 10 µM; in assay [2], 14 µM. Also, the “ERF degradation, validation by proteomics analysis” value in assay [3] was “not validated as a confirmed degraded protein”. The “change in abundance of PIP4K2A (proteomics)” value in assay [4] was “no detectable change in abundance”. Moreover, the “change in abundance of PIP4K2B (proteomics)” value in assay [5] is on record as “no detectable change in abundance”. Besides, the “ERF degradation, as seen in FIG. 1D” value in assay [6] was “scored as a potential degraded protein”.
